In paper PMC10348910, “Epigenetic reprogramming of cell cycle genes by ACK1 promotes breast cancer resistance to CDK4/6 inhibitor” (Oncogene, 2023):

Tests used:
[1] = test system: cytochrome P450 (CYP) isoenzymes; type: in vitro ADME; settings: human liver microsomes; CYP1A1/2, CYP2C9, CYP2C19, CYP2D6 and CYP3A4
[2] = test system: pY284-ACK1; test: immunoprecipitation and immunoblotting for pY284-ACK1; type: cell-based; settings: MDA-MB-231, HCC-1395, Cal148, T47D, MCF7, SKBR3, MDA-MB-453; overnight
Protocol: Fig. 2 ACK1 regulates breast cancer transcriptome, affecting genes implicated in cell cycle progression. A Chemical structure of (R)-9b. B Breast cancer cell lines were treated with either vehicle or (R)-9b overnight and cell lysates were subjected to immunoprecipitation using ACK1 antibody, followed by immunoblotting with pY284-ACK1 antibody. Lysates were also subjected to immunoblotting with total ACK1 and Actin antibodies, shown in the lower panels. […] C Breast cancer cell lines were treated with varying concentrations of (R)-9b for 96 h and the cell proliferation was measured using Trypan Blue exclusion method. D–H RNA from breast cancer cells treated with vehicle or varying concentrations of (R)-9b overnight, and were subjected to qRT-PCR using CCNB1, CCNB2 and CDC20 primers. Actin or 18S rRNA was used as housekeeping control. For (B), representative images of three independent experiments are shown. For (C), a four parameter, variable slope, non-linear regression curve was computed, representing three independent experiments. For (D–H), data are represented as the mean ± SEM. *p < 0.05, **p < 0.01, ***p < 0.001, unpaired two-tailed Student’s t test.
(§1) Vehicle or (R)-9b (5 µM, overnight in serum free media) treated cells were lysed by sonication in receptor lysis buffer (RLB) and lysates were fractionated by SDS-PAGE, and transferred onto a PVDF membrane (Immobilon). […]

[3] = test system: CCNB1, CCNB2 and CDC20 protein; test: immunoblotting of CCNB1, CCNB2 and CDC20; type: cell-based; settings: breast cancer cell lysates
Description: Fig. 3 ACK1 inhibitor suppresses expression of cell cycle genes. A Cell lysates from vehicle or (R)-9b treated cells were immunoblotted using CCNB1, CCNB2 and CDC20 antibodies. B HCC-1395 and MDA-MB-231 cells were transfected with ACK1 and scrambled siRNAs, followed by qPCR using ACK1 primers, with 18S rRNA as internal control. C siRNA transfected cells were subjected to western blotting using ACK1 antibody, with Actin as loading control. RNA from silenced cells, (D) HCC-1395 and (E) MDA-MB-231 was subjected to qPCR using CCNB1, CCNB2 and CDC20 primers. 18S rRNA was used as housekeeping control. For (A) and (C), representative images of three independent experiments are shown. For (B, D, E), data are represented as the mean ± SEM. *p < 0.05, **p < 0.01, ***p < 0.001, unpaired two-tailed Student’s t test.
as §1

[4] = test system: Cal-148 xenografts; test: Cal-148 xenograft in mammary fat pad; type: in vivo, female SCID mice; settings: 24 mg/Kg subcutaneously, 4 weeks
Protocol: In order to assess the in vivo implications of ACK1 inhibition in TNBCs, Cal-148 xenografts were established in mammary fat pad of female SCID mice. Once the tumors were palpable, the mice were injected subcutaneously with 24 mg/Kg of (R)-9b for 4 weeks and the tumor volumes were measured. On reaching the endpoint, the mice were sacrificed and the tumors were harvested, weighed and photographed. […] RNA was prepared from the tumors, followed by qRT-PCR.
Fig. 6 (R)-9b inhibits breast cancer xenograft tumor growth in vivo. A 2 × 10^6 Cal-148 cells were injected in the 4th inguinal mammary fat pad of female SCID mice. Once the tumors were palpable, the mice were treated subcutaneously with either vehicle (Captisol; n = 8) or (R)-9b at 24 mg/Kg (n = 8) five times a week, for 4 weeks. The tumor volumes were measured twice a week. B, C The tumors were harvested and photographed, and the weights were recorded. D RNA was prepared from the tumors, followed by qRT-PCR to determine the levels of CCNB1, CCNB2 and CDC20 mRNA (n = 3 each). […] The tumors were harvested, their weights were recorded and photographed. […]
All animal experiments were performed using the standards for humane care in accordance with the NIH Guide for the Care and Use of Laboratory Animals. […] Tumor volumes were measured twice a week using calipers. […]

Question: Which results are given for CN1CCN(c2ccc(Nc3ncc(Cl)c(NC[C@H]4CCCO4)n3)cc2)CC1 [(R)-9b]?
Answer: potential to inhibit cytochrome P450 (CYP) isoenzymes [1]: low potential to inhibit; pY284-ACK1 levels (ACK1 activation) [2]: reduced pY284-ACK1 levels; CCNB1, CCNB2 and CDC20 protein abundance [3]: decrease in respective protein abundance; CCNB1, CCNB2 and CDC20 mRNA levels in tumors [4]: significant decrease; xenograft tumor growth ([4]; five times a week): significant suppression
